Data set [1] has as its system MDA-MB231 human breast cancer cells. Briefly: Clonogenic cell survival, MDA-MB231. The format is cell-based. The note with it: for clonogenic cell killing: 100 μM BSO, 1 μM DTPP 24 h, 500 nM AUR 15 min (FIG. 1B). As for the experimental part: (§1) FIGS. 1A-D: BSO, DTPP and AUR treated SUM159, MDA-MB231 and HMEC Clonogenic survival. In Panel A (SUM 159), B (MDA-MB231) and C(HMEC), 150,000 cells/dish SUM159 or MDA-MB231 and 300,000 cells/dish were plated in 60 mm tissue culture dishes. After 48 hours, cells were given fresh complete HMECs media and treated with 100 μM BSO+/1 μM DTPP for 24 hours. 500 nM AUR were added 15 mins before the trypsinization of cells for clonogenic survival assay. In panel A-C, The error bars represent mean±1 SD of n=1 treatment dishes done in 3 separate experiments where each treatment dish was used to prepare 6-10 replicate cloning dishes for analysis. *p<0.001 as compared to Control. […] Mice growing Sum159 xenograft tumors were treated with 100 μM DTPP in drinking water for 2 weeks followed by i.p. injections of BSO 675 mg/kg followed in 2 hrs with Au 2.7 mg/kg. The day following injections tumors were harvested, digested and stained for ALDH positive cells. Each bar represents an average of at least three tumors. Error bars are SEM. *p<0.05 vs. control.
FIGS. 3A-3B: Clonogenic survival of SUM159 and MDA-MB231 cells treated with BSO, DTPP and AUR in the presence of 20 mM NAC. Asynchronously growing cultures of SUM159 (panel A) and MDA-MB231 (panel B) were plated as described in FIG. 1. After 48 hours, cells were given fresh complete HMECs media and treated with 100 μM BSO+/1 μM DTPP in the presence or absence of 20 mM NAC for 24 hours. 500 nM AUR were added 15 mins before the trypsinization. cells were then collected and plated for clonogenic survival. In panel A, B, The error bars represent mean±1SD of n=1 treatment dishes done in 3 separate experiments where each treatment dish was used to prepare 6-10 replicate cloning dishes for analysis. *p<0.001 as compared to W/O NAC Control. ^p<0.001 as compared to W/NAC Control.
Clonogenic cell survival: To determine whether the DTPP exposure alters the cell proliferation in MDA-MB231, SUM159 and HMECs, 150,000 cells/dish of MDA-MB231 and SUM159 cells, and 300,000 cells/dish HMECs were plated in 60 mm tissue culture dishes. After 48 hours, at 24 hours prior to each clonogenic survival experiment, media in all the dishes were changed to HMECs media and then treated with 100 μM BSO and 1 μM DTPP for 24 h. Cells were treated with AUR for 15 minutes prior to each clonogenic survival experiment. Attached and floating cells in the experimental dishes were collected after trypsinization with 1× trypsin-EDTA (CellGro, Herndon, Va., USA), centrifuged, resuspended in fresh media, and counted using a Coulter counter. Cells were re-plated using appropriate dilutions in their own media and clones were allowed to grow for 14 days in their regular growth media in the presence of 0.1% gentamycin. Cells were then fixed with 70% ethanol and stained with Coomassie blue and colonies of more than 50 cells counted and utilized to calculate clonogenic survival as described (Puck, T. T.; Morkovin, D.; Marcus, P. I.; Cieciura, S. J. Action of x-rays on mammalian cells. II. Survival curves of cells from normal human tissues. J Exp Med 106:485-500; 1957; Spitz, D. R.; Malcolm, R. R.; Roberts, R. J. Cytotoxicity and metabolism of 4-hydroxy-2-nonenal and 2-nonenal in H2O2-resistant cell lines. Do aldehydic by-products of lipid peroxidation contribute to oxidative stress? Biochem J 267:453-459; 1990). […]

The test system of data set [2] is normal human mammary epithelial cells (HMEC). Briefly: Clonogenic cell survival, HMEC. The format is cell-based. The note with it: 100 μM BSO, 1 μM DTPP 24 h, 500 nM AUR 15 min. The protocol: as §1
FIG. 2: BSO and AUR treated SUM159 dose response Clonogenic survival. 150,000 cells/dish SUM159 were plated in 60 mm tissue culture dishes. After 48 hours, cells were given fresh complete HMECs media and treated with 100 μM BSO 24 hours. 500 nM AUR were added 15 mins, 30 mins, 45 mins, 1 hr, 1.5 hrs and 3 hrs before the trypsinization. Cells were then collected and plated for clonogenic survival. […]
Clonogenic cell survival: To determine whether the DTPP exposure alters the cell proliferation in MDA-MB231, SUM159 and HMECs, 150,000 cells/dish of MDA-MB231 and SUM159 cells, and 300,000 cells/dish HMECs were plated in 60 mm tissue culture dishes. […] Attached and floating cells in the experimental dishes were collected after trypsinization with 1× trypsin-EDTA (CellGro, Herndon, Va., USA), centrifuged, resuspended in fresh media, and counted using a Coulter counter. […]

Another data set has as its system MDA-MB231 cells. Briefly: MitoSOX red oxidation, MDA-MB231. The format is cell-based, human. The protocol: FIGS. 4A-4C: MitoSOX oxidation in SUM159, MDA-MB231 and HMECs cells treated with BSO, DTPP and AUR. Asynchronously growing cultures of SUM159 (Panel A) MDA-MB231 (Panel B) and HMECs (Panel C) were plated and treated as described in FIG. 1. Monolayer cultures were harvested and trypsinized, washed once with PBS and labeled 20 minutes with 2 μM MitoSOX (in 0.1% DMSO) in PBS containing 5 mM pyruvate at 37° C. Each sample was then analyzed for the Mean fluorescence Intensity (MFI) of 10,000 cells by flow cytometry. Samples were assayed in triplicate; mean±1 SD of 1 experiment containing 3 treatment dishes per group (n=3), * or ^p<0.001 as compared to Control.
MitoSOX™ red oxidation to estimate mitochondrial superoxide production: To determine if DTPP can alter steady-state levels of superoxide originating from mitochondria in SUM159, MDA-MB231 and HMEC cells, the cationic superoxide sensitive dye, MitoSOX™red (Molecular Probes), was used. Cells were plated and treated as described earlier in clonogenic survival experiment. After the exposure, cells were trypsinized and washed with 5 mM/L pyruvate containing PBS once then labeled with MitoSOX™red (2 μM, in 0.1% DMSO, 20 minutes) at 37° C. After labeling, cells were kept on ice. Samples were analyzed using a FACScan flowcytometer (Becton Dickinson Immunocytometry System, INC., Mountain View, Calif.) (excitation 488 nm, emission 585 nm band-pass filter). The mean fluorescence intensity of 10,000 cells was analyzed in each sample and corrected for autofluorescence from unlabeled cells. The MFI data was normalized to control levels.

“And” between values parts separate entries of the source, which are not always exact repeats. Identical values can stand only once.

Consider `CCCCS(=N)(=O)CCC(N)C(=O)O` [BSO, L-buthionine-[S,R]-sulfoximine, reference compound], for which the “cytotoxicity (clonogenic survival), in words” value (“cytotoxicity” for short) is reported as “did not cause significantly cytotoxicity” in data set [1] (100 μM BSO 24 h) and “did not cause any significant cytotoxicity” in data set [2]. For the same compound, in the data set with MDA-MB231 cells, the “change in MitoSOX oxidation, in words” value was “did not exhibit any change in MitoSOX oxidation”.
`CCCCCCCCCC[P+](c1ccccc1)(c1ccccc1)c1ccccc1` [DTPP, Decyl-Triphenylphosphonium]: the “survival fraction (of control cells) in the presence of NAC” value in data set [1] (1 μM DTPP with 20 mM NAC, 24 hrs) is listed as “at least 70%”. Further, the “decrease in cell survival / survival fraction compared to control” value in data set [1] (100 μM BSO and/or 1 μM DTPP for 24 hours) is listed as 70%-80%. The clonogenic cell killing result in data set [1] is “at least 70%”. Moreover, the “cytotoxicity” value in data set [2] is given as “did not cause any significant cytotoxicity”. Also, the “increase in MitoSOX red oxidation relative to control” value in the data set on MDA-MB231 cells (1 μM DTPP, 100 μM BSO 24 h, 500 nM AUR 15 min) stood at 12 fold.
`CC[PH](CC)(CC)[Au][S][C@@H]1O[C@H](COC(C)=O)[C@@H](OC(C)=O)[C@H](OC(C)=O)[C@H]1OC(C)=O` [AUR, S-triethylphosphinegold(I)-2,3,4,6-tetra-O-acetyl-1-thio-β-D-glucopyranoside]: the clonogenic cell killing in data set [1] is 50%-55% and 50%. Besides, the “cytotoxicity” value in data set [2] was “did not cause any significant cytotoxicity”. Besides, the “change in MitoSOX oxidation, in words” value in the data set with MDA-MB231 cells is recorded as “did not exhibit any change in MitoSOX oxidation”.

(Values after patent publication US9801922B2, “Compositions and methods of treating cancer” (UNIVERSITY OF IOWA RESEARCH FOUNDATION, priority 2011, dated 2017).)
